Experimental data as given in US20260125382A1, “COMPOUNDS FOR INHIBITING OR DEGRADING CDK2 AND/OR CDK9 AND MEDICINAL USE THEREOF” (KOREA RESEARCH INSTITUTE OF CHEMICAL TECHNOLOGY, priority 2022, published 2026).

Legend:
[1] = target: T1, CDK2 (Homo sapiens, UniProt P24941); test: CDK protein degradation activity (Western blotting), CDK2; type: cell-based; conditions: MDA-MB-231 cells, 16 hours, Western blot
T1 construct: endogenous in cells; host or cells: MDA-MB-231
Experimental: (§1) In order to evaluate the CDK protein degradation activity of the compounds according to the present invention, the following experiment was conducted.
(§2) MDA-MB-231 cells were seeded at 5×10^5 cells per well in a 6-well plate. The next day, the compounds were treated in each well to achieve final concentrations of 100 nM, 1 μM, and 10 μM. For the control group, an equal amount of DMSO was treated in the well as the compound. After 16 hours of treatment, cells were collected, and cell lysates were prepared using Triton X-100 lysis buffer (50 mM HEPES, pH 7.5, 40 mM NaCl, 1% Triton X-100, 1 mM EDTA, 1 mM EGTA, 10 mM pyrophosphate, 10 mM β-glycerophosphate, 50 mM NaF, 1 mM NaVO4, protease inhibitor). Cell lysates were quantified and separated by size using sodium dodecyl sulfate-polyacrylamide gel electrophoresis (SDS-PAGE). Western blotting was then performed using antibodies that recognize CDK2, CDK9, and tubulin, respectively. The results obtained by Western blotting were quantitatively analyzed using the ImageJ program, and representative images according to the experimental results are shown in FIG. 1.

[2] = target: T2, CDK9 (Homo sapiens, UniProt P50750); test: CDK protein degradation activity (Western blotting), CDK9; type: cell-based; conditions: MDA-MB-231 cells, 16 hours, Western blot
T2 construct: endogenous in cells; host or cells: MDA-MB-231
Experimental: as §1, §2

T2 sequence (P50750 whole entry): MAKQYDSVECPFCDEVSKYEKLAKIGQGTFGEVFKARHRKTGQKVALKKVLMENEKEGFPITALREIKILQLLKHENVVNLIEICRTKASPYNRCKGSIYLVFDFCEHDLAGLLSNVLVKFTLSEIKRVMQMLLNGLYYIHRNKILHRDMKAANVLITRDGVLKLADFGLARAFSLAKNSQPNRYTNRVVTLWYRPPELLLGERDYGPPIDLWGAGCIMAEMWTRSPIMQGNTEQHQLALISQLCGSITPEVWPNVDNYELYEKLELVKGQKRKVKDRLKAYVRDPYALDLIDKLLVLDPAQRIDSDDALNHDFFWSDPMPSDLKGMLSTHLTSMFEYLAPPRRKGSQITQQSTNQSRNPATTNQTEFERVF

Enzyme degradation CDK2 (% remaining) @ 0.1 μM [1] | Enzyme degradation CDK2 (% remaining) @ 1 μM [1] | Enzyme degradation CDK2 (% remaining) @ 10 μM [1] | Enzyme degradation CDK9 (% remaining) @ 0.1 μM [2] | Enzyme degradation CDK9 (% remaining) @ 1 μM [2] | Enzyme degradation CDK9 (% remaining) @ 10 μM [2] | Structure (SMILES)
80% | 40% | 10% | 90% | 60% | 20% | Cc1cccc(C(=O)N[C@H]2C[C@@H](n3cnc4c(NC5CCN(C(=O)CC6CCN(C(=O)COc7cccc8c7C(=O)N([C@H]7CCC(=O)NC7=O)C8=O)CC6)CC5)ncnc43)C2)n1 [Compound 50, N-((1s,3s)-3-(6-((1-(2-(1-(2-((2-(2,6-dioxopiperidin-3-yl)-1,3-dioxoisoindolin-4-yl)oxy)acetyl)piperidin-4-yl)acetyl)piperidin-4-yl)amino)-9H-purin-9-yl)cyclobutyl)-6-methylpicolinamide]
70% | 20% | 20% | 70% | 0% | 0% | Cc1cccc(C(=O)NC2CC(n3cnc4c(NC5CCN(C(=O)CC6CCN(C(=O)CNc7ccc8c(c7)C(=O)N([C@H]7CCC(=O)NC7=O)C8=O)CC6)CC5)ncnc43)C2)n1 (stereo partly drawn) [Compound 51, N-((1s,3s)-3-(6-((1-(2-(1-((2-(2,6-dioxopiperidin-3-yl)-1,3-dioxoisoindolin-5-yl)glycyl)piperidin-4-yl)acetyl)piperidin-4-yl)amino)-9H-purin-9-yl)cyclobutyl)-6-methylpicolinamide]
40% | 40% | 50% | 70% | 30% | 10% | Cc1cccc(C(=O)NC2CC(n3cnc4c(NC5CCN(C(=O)CC6CCN(C(=O)CNc7cccc8c7C(=O)N([C@H]7CCC(=O)NC7=O)C8=O)CC6)CC5)ncnc43)C2)n1 (stereo partly drawn) [Compound 52, N-((1s,3s)-3-(6-((1-(2-(1-((2-(2,6-dioxopiperidin-3-yl)-1,3-dioxoisoindolin-4-yl)glycyl)piperidin-4-yl)acetyl)piperidin-4-yl)amino)-9H-purin-9-yl)cyclobutyl)-6-methylpicolinamide]
90% | 80% | 70% | 90% | 90% | 10% | Cc1cccc(C(=O)NC2CC(n3cnc4c(NC5CCN(C(=O)CC6CCN(c7ccc8c(c7)C(=O)N([C@H]7CCC(=O)NC7=O)C8=O)CC6)CC5)ncnc43)C2)n1 (stereo partly drawn) [Compound 53, N-((1s,3s)-3-(6-((1-(2-(1-(2-(2,6-dioxopiperidin-3-yl)-1,3-dioxoisoindolin-5-yl)piperidin-4-yl)acetyl)piperidin-4-yl)amino)-9H-purin-9-yl)cyclobutyl)-6-methylpicolinamide]
20% | 10% | 30% | 0% | 0% | 10% | Cc1cccc(C(=O)N[C@H]2C[C@H](n3cnc4c(NCC5CCN(CC6CCN(C(=O)CNc7cccc8c7C(=O)N(C7CCC(=O)NC7=O)C8=O)CC6)CC5)ncnc43)C2)n1 (stereo partly drawn) [Compound 75, N-((1r,3r)-3-(6-(((1-((1-((2-(2,6-dioxopiperidin-3-yl)-1,3-dioxoisoindolin-4-yl)glycyl)piperidin-4-yl)methyl)piperidin-4-yl)methyl)amino)-9H-purin-9-yl)cyclobutyl)-6-methylpicolinamide]
100/100/100% | 100/100/100% | 100/100/100% | 30% | 20% | 10% | Cc1cccc(C(=O)NC2CC(n3cnc4c(NCC5CCN(CC6CCN(c7ccc8c(c7)C(=O)N([C@@H]7CCC(=O)NC7=O)C8=O)CC6)CC5)ncnc43)C2)n1 (stereo partly drawn) [Compound 76, N-((1r,3r)-3-(6-(((1-((1-(2-(2,6-dioxopiperidin-3-yl)-1,3-dioxoisoindolin-5-yl)piperidin-4-yl)methyl)piperidin-4-yl)methyl)amino)-9H-purin-9-yl)cyclobutyl)-6-methylpicolinamide]
50% | 30% | 20% | 70% | 30% | 10% | Cc1cccc(C(=O)NC2CC(n3cnc4c(Nc5ccc(N6CCN(C(=O)COc7ccc8c(c7)C(=O)N([C@H]7CCC(=O)NC7=O)C8=O)CC6)cc5)ncnc43)C2)n1 (stereo partly drawn) [Compound 84, N-((1s,3s)-3-(6-((4-(4-(2-((2-(2,6-dioxopiperidin-3-yl)-1,3-dioxoisoindolin-5-yl)oxy)acetyl)piperazin-1-yl)phenyl)amino)-9H-purin-9-yl)cyclobutyl)-6-methylpicolinamide]
70% | 60% | 50% | 60% | 40% | 30% | Cc1cccc(C(=O)NC2CC(n3cnc4c(Nc5ccc(N6CCN(C(=O)COc7cccc8c7C(=O)N([C@H]7CCC(=O)NC7=O)C8=O)CC6)cc5)ncnc43)C2)n1 (stereo partly drawn) [Compound 85, N-((1s,3s)-3-(6-((4-(4-(2-((2-(2,6-dioxopiperidin-3-yl)-1,3-dioxoisoindolin-4-yl)oxy)acetyl)piperazin-1-yl)phenyl)amino)-9H-purin-9-yl)cyclobutyl)-6-methylpicolinamide]
90% | 70% | 50% | 50% | 50% | 40% | Cc1cccc(C(=O)N[C@H]2C[C@@H](n3cnc4c(Nc5ccc(N6CCN(C(=O)CNc7cccc8c7C(=O)N([C@H]7CCC(=O)NC7=O)C8=O)CC6)cc5)ncnc43)C2)n1 [Compound 87, N-((1s,3s)-3-(6-((4-(4-((2-(2,6-dioxopiperidin-3-yl)-1,3-dioxoisoindolin-4-yl)glycyl)piperazin-1-yl)phenyl)amino)-9H-purin-9-yl)cyclobutyl)-6-methylpicolinamide]
20/20/20% | 20/20/20% | 20/20/20% | 0/0/0% | 0/0/0% | 0/0/0% | Cc1cccc(C(=O)N[C@H]2C[C@@H](n3cnc4c(Nc5ccc(N6CCN(CC7CCN(c8ccc9c(c8)C(=O)N([C@H]8CCC(=O)NC8=O)C9=O)CC7)CC6)cc5)ncnc43)C2)n1 [Compound 88, N-((1s,3s)-3-(6-((4-(4-((1-(2-(2,6-dioxopiperidin-3-yl)-1,3-dioxoisoindolin-5-yl)piperidin-4-yl)methyl)piperazin-1-yl)phenyl)amino)-9H-purin-9-yl)cyclobutyl)-6-methylpicolinamide]
70% | 50% | 90% | 10% | 0% | 0% | Cc1cccc(C(=O)NC2CC(n3cnc4c(Nc5ccc(N6CCN(CC7CCN(c8cccc9c8C(=O)N([C@H]8CCC(=O)NC8=O)C9=O)CC7)CC6)cc5)ncnc43)C2)n1 (stereo partly drawn) [Compound 89, N-((1s,3s)-3-(6-((4-(4-((1-(2-(2,6-dioxopiperidin-3-yl)-1,3-dioxoisoindolin-4-yl)piperidin-4-yl)methyl)piperazin-1-yl)phenyl)amino)-9H-purin-9-yl)cyclobutyl)-6-methylpicolinamide]
40% | 20% | 10% | 0/0/0% | 0/0/0% | 0/0/0% | Cc1cccc(C(=O)N[C@H]2C[C@@H](n3cnc4c(Nc5ccc(N6CCN(CC7CCN(C(=O)COc8ccc9c(c8)C(=O)N([C@H]8CCC(=O)NC8=O)C9=O)CC7)CC6)cc5)ncnc43)C2)n1 [Compound 90, N-((1s,3s)-3-(6-((4-(4-((1-(2-((2-(2,6-dioxopiperidin-3-yl)-1,3-dioxoisoindolin-5-yl)oxy)acetyl)piperidin-4-yl)methyl)piperazin-1-yl)phenyl)amino)-9H-purin-9-yl)cyclobutyl)-6-methylpicolinamide]
